The values that follow come from PubChem BioAssay AID1033 (Sanford-Burnham Center for Chemical Genomics, 2008).

Calls of active or inactive are those of the source. How the calls were made is not given here. Bounds are passed on as bounds.

For the assay, the target named is Chaperone protein DnaK (Escherichia coli (strain K12)) (UniProt P0A6Y8). Kind of assay: E. coli DnaK SBD ligand binding – biophysical, NMR, chaperone (AID 1033). The settings on record: Purified DnaK SBD.

One may read the Kd as the free concentration of one partner at which half of the binding sites on the other are occupied at equilibrium, for simple one-to-one binding.

Sequence of Chaperone protein DnaK (Escherichia coli (strain K12)) (P0A6Y8 whole entry, looked up): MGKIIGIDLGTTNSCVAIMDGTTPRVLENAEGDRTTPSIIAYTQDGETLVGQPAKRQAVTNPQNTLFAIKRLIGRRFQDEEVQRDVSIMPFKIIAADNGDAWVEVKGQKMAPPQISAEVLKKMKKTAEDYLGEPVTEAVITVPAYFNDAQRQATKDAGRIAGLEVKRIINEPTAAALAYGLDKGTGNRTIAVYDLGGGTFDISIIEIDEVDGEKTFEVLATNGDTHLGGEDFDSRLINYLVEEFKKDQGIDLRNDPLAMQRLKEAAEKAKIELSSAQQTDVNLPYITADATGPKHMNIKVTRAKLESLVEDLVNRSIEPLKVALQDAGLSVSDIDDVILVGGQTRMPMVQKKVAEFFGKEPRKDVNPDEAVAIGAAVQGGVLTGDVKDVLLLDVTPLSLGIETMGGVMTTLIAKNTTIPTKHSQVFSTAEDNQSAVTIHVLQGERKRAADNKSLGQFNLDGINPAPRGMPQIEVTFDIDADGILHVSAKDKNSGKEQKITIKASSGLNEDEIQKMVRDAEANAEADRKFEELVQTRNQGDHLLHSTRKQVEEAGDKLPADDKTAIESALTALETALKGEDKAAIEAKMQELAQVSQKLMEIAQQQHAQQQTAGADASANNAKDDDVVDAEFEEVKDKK

Regarding `Cc1nc2ccccc2c(=O)[nH]1`, the Kd is > 4 mM (inactive).
The same measure for `CSc1nnc2c(n1)OC(C)=Nc1ccccc1-2`: > 4 mM (inactive); for `NC1=C(c2ccccc2)C(=O)c2ccccc21`: > 4 mM (inactive); for `COc1ccccc1-c1n[nH]c(=O)o1`: > 4 mM (inactive).
As to `C(=Nn1cnnc1)c1ccccc1`, the Kd was > 4 mM (inactive).
On to `CN(C)S(=O)(=O)NCc1ccc2c(c1)OCO2`, for which the Kd was > 4 mM (inactive).
As for `O=C(NC(=S)NCCO)c1ccccc1`, the Kd was > 4 mM (inactive).
The same measure for `CCNC(=S)N1CCC(C(N)=O)CC1`: > 4 mM (inactive); for `C[C@@H]1C(=O)OC2[C@H](O)C34[C@@H]5OC(=O)[C@@]3(O[C@@H]3OC(=O)[C@H](O)[C@@]34[C@H](C(C)(C)C)[C@H]5O)[C@]21O` (some centres undefined): > 4 mM (inactive); for `O=C(Nc1nnc(-c2ccco2)o1)c1ccc([N+](=O)[O-])o1`: > 4 mM (inactive).
Consider `COC1(C)CCC2OC2(C)CCC2C1CC2(C)C` (centres undefined), for which the Kd was > 4 mM (inactive).
On to `CC(C)(C)C(=O)N1CCCC1C(=O)O` (centres undefined), for which the Kd was > 4 mM (inactive).
As to `CC(C)C(=O)NC(=S)N1CCOCC1`, the Kd was > 4 mM (inactive).
On to `O=C(CSc1ncccn1)NCc1ccco1`, for which the Kd is > 4 mM (inactive).
With `N=c1c2c3c(sc2ncn1N)CCCC3`, the Kd is > 4 mM (inactive).
`OCc1ccccc1O[C@@H]1O[C@H](CO)[C@@H](O)[C@H](O)[C@H]1O`: the Kd is > 4 mM (inactive).
As to `COc1ccc(-c2nc3nc(C)cc(C)n3n2)cc1`, the Kd is > 4 mM (inactive).
Turning to `CN1CCn2c1nc(N1CCOCC1)nc2=O`, the Kd is > 4 mM (inactive).
With `Cn1c(=O)c2cn3ncccc3c2n(C)c1=O`, the Kd is > 4 mM (inactive).
Consider `S=c1[nH]nc(-c2cccnc2)n1C1CCCCC1`, for which the Kd is > 4 mM (inactive).
In the case of `O=c1cc(-c2ccccc2)oc2cc(O)cc(O)c12` it was > 4 mM (inactive); in that of `Cc1scc(C(=O)Nn2cnnc2)c1-c1ccccc1`, > 4 mM (inactive); in that of `Cc1cc(=O)c2ccccc2n1CC(N)=O`, > 4 mM (inactive).
For `NC(=O)C1CCN(C(=S)c2cccs2)CC1`, the Kd was > 4 mM (inactive).
`Cc1cc(C(=O)c2c(C)nn(C)c2Cl)n(C)n1`: the Kd was > 4 mM (inactive).
`Cc1cc(NC(=O)c2cccc(N3C(=O)CCC3=O)c2)no1`: the Kd was > 4 mM (inactive).
Turning to `CC1(C)C(=O)[C@@H]2O[C@@H]2[C@@]2(C)C1C[C@@H](O)[C@]1(C)C2CC[C@@]2(C)[C@H](c3ccoc3)OC(=O)C3OC321` (some centres undefined), the Kd was > 4 mM (inactive).
Consider `CS(=O)(=O)c1ccc(N)cc1`, for which the Kd is > 4 mM (inactive).
In the case of `COc1cc([C@@H]2c3cc4c(cc3[C@H](OC(C)=O)[C@H]3COC(=O)[C@H]23)OCO4)cc(OC)c1OC`, the Kd is > 4 mM (inactive).
Consider `O=C(O)c1cc2ccccc2cn1`, for which the Kd was > 4 mM (inactive).
In the case of `NCCCCNCCCN`, the Kd is > 4 mM (inactive).
In the case of `CCCCCCCCCCCCCCC(C(=O)OC)C(O)(CC(=O)OC)C(=O)OC` (centres undefined) it was > 4 mM (inactive).
For the molecule `CC1CCN(C(=O)c2ccc3c(c2)OCCO3)CC1`, the Kd is > 4 mM (inactive).
As to `CCC(CO)NC(=O)c1snnc1C` (centres undefined), the Kd was > 4 mM (inactive).
In the case of `CSc1nnc(-c2ccccc2NC(C)=O)o1`, the Kd is > 4 mM (inactive).
In the case of `O=C(O)C1CC2CC1CCC2O` (centres undefined), the Kd is > 4 mM (inactive).
With `COc1ccc(C)cc1S(N)(=O)=O`, the Kd was > 4 mM (inactive).
Consider `OCC1CCN(c2ncccn2)CC1`, for which the Kd is > 4 mM (inactive).
Turning to `c1ccc(C[N+]23CCN(CC2)CC3)cc1`, the Kd is > 4 mM (inactive).
`CC(=O)c1c(C)nc(-c2ccc(F)cc2)n1O`: the Kd is > 4 mM (inactive).
Regarding `Nc1ccc(-c2csnn2)cc1`, the Kd is > 4 mM (inactive).
With `Nc1ccc2c(c1)C(=O)OC2`, the Kd was > 4 mM (inactive).
For the molecule `O=c1cnnc(Nc2ccc(O)cc2)[nH]1`, the Kd is > 4 mM (inactive).
Regarding `NC(=O)c1ccc(C(N)=O)cc1`, the Kd is > 4 mM (inactive).
Take `COC(=O)CC1SC(=O)NC1=O` (centres undefined): the Kd was > 4 mM (inactive).
Take `O=C(O)C1CSC(c2cc3ccccc3nc2Cl)N1` (centres undefined): the Kd is > 4 mM (inactive).
For the molecule `NCc1ccc2sccc2c1`, the Kd was > 4 mM (inactive).
Regarding `Cc1nc2ccc(NC(=O)N3CCOCC3)cc2s1`, the Kd is > 4 mM (inactive).
For `Nc1ncnc2nc[nH]c12`, the Kd was > 4 mM (inactive).
The same measure for `O=c1ccn(Cc2ccccc2)c(=O)[nH]1`: > 4 mM (inactive); for `CC(C)=CCCC1(C)C=Cc2c(O)c3c(c(CC=C(C)C)c2O1)OC12C(=CCCC1C(C)(C)O[C@@]2(C/C=C(\C)C(=O)O)C(=O)O)C3=O` (some centres undefined): > 4 mM (inactive); for `O=C(CNC(=O)c1cccs1)NC1=NCCS1`: > 4 mM (inactive).
`CCCN1CCC(N2CCC(O)CC2)CC1`: the Kd was > 4 mM (inactive).
`C/C1=C\CCC(=O)C2CC(C)(C)C2CC1` (centres undefined): the Kd was > 4 mM (inactive).
As for `CC(=O)O[C@H]1C[C@@H](OC(C)=O)C(C)(C)C2CC(=O)[C@]3(C)C(CC[C@@]4(C)[C@H](c5ccoc5)OC(=O)[C@H]5O[C@]543)[C@]21C` (some centres undefined), the Kd is > 4 mM (inactive).
Take `CC(C)=CCC[C@](C)(O)C1CC=C(C)CC1` (some centres undefined): the Kd was > 4 mM (inactive).
Take `Cc1cccc(NC(=O)c2ccc(=O)[nH]n2)c1`: the Kd was > 4 mM (inactive).
The same measure for `Nc1scc[n+]1CC(=O)[O-]`: > 4 mM (inactive).
On to `CSc1nc(C)cc(Oc2ccc(=O)n(C)n2)n1`, for which the Kd was > 4 mM (inactive).
On to `Cc1[nH]c2ccccc2c1C(=O)CSc1ncn[nH]1`, for which the Kd is > 4 mM (inactive).
Regarding `O=C(COc1ccccc1)N1CCc2ccccc2C1`, the Kd was > 4 mM (inactive).
As to `CC1=C2C(=CO[C@H](C)[C@H]2C)C(=O)C(C(=O)O)=C1O`, the Kd is > 4 mM (inactive).
As for `O=C(O)C1CCCN1Cc1c[nH]c2ccccc12` (centres undefined), the Kd was > 4 mM (inactive).
Take `CC(C)CCCC(C)[C@H]1CCC2C3CC=C4CC(=O)CC[C@]4(C)C3CC[C@@]21C` (some centres undefined): the Kd was > 4 mM (inactive).
`Cc1nnc2sc(-c3ccco3)nn12`: the Kd was > 4 mM (inactive).
Take `Nc1nc(-c2cccnc2)nn1C(=O)Cc1ccccc1`: the Kd was > 4 mM (inactive).
`OC[C@@H]1CCCN2CCCC[C@H]12`: the Kd is > 4 mM (inactive).
Take `COC(CC(=O)O)c1nc2ccccc2s1` (centres undefined): the Kd is > 4 mM (inactive).
For the molecule `OCC1Cc2ccccc2N1` (centres undefined), the Kd was > 4 mM (inactive).
For the molecule `O=C1C2CC=CCC2C(=O)N1c1ccccc1O` (centres undefined), the Kd was > 4 mM (inactive).
On to `COCC(=O)Nc1ccc(C)c(Cl)c1`, for which the Kd was > 4 mM (inactive).
For `Cc1nc2nc(COc3ccccc3)nn2c(C)c1Cl`, the Kd was > 4 mM (inactive).
Turning to `NC(=O)CSc1ncnc2ccccc12`, the Kd was > 4 mM (inactive).
On to `COC(=O)C1CCc2ccccc2N1` (centres undefined), for which the Kd is > 4 mM (inactive).
